The results in this text go back to paper PMC4071569, “Investigation of Indolglyoxamide and Indolacetamide Analogues of Polyamines as Antimalarial and Antitrypanosomal Agents” (Marine Drugs, 2014).

Common to all, as to type: cell-based
Assay [1] deals with Plasmodium falciparum, NF54 strain, IEF stage. Description: In vitro antimalarial activity, NF54 drug sensitive strain. Particulars: for Pf SI (selectivity index for P. falciparum = IC50 L6/IC50 Pf): NF54 strain vs L6. Here is the method: (§1) The in vitro activities against the protozoan parasites T.b. rhodesiense, and P. falciparum and cytotoxicity assessment against L6 cells were determined as reported elsewhere.

The subject of assay [2] is L6 rat skeletal myoblast cell line. Description: Cytotoxicity towards L6 cells. Particulars: read-out: IC50 L6. Here is the method:
as §1

Assay [3] relates to Trypanosoma brucei rhodesiense, STIB 900 strain, trypomastigotes stage. Description: In vitro anti-trypanosomal activity (growth inhibition). Particulars: Trypanosoma brucei, read-out: IC50 T. b. rhod. Here is the method: as §1
Where [4] appears, read: Plasmodium falciparum, NF54 strain, IEF stage, average of two independent assays, read-out: IC50 P. falc.
Setting [5] is: L6 rat skeletal myoblast cell line, average of two independent assays.
The mark [6] stands for this setting: STIB 900 strain, trypomastigotes, average of two independent assays.
[7] abbreviates: NF54 strain, IEF stage, average of two independent assays, read-out: IC50 P. falc.

Read-outs that look alike come from different tables or passages of the source. Bounds are passed on as bounds.

By IC50 is commonly meant the concentration needed to halve the response being measured. Take `CCN(CC)CCCC(C)Nc1ccnc2cc(Cl)ccc12` (centres unmarked) [Chloroquine, reference compound]: in assay [1] (Plasmodium falciparum, NF54, read-out: IC50 P. falc.), the IC50 worked out at 4 nM.
Consider `O=C(NCCCCNCCCNC(=O)C(=O)c1c[nH]c2cc(Br)ccc12)C(=O)c1c[nH]c2cc(Br)ccc12.O=C(O)C(F)(F)F` [Compound 5, 4-(2-(6-Bromo-1H-indol-3-yl)-2-oxoacetamido)-N-(3-(2-(6-bromo-1H-indol-3-yl)-2-oxoacetamido)propyl)butan-1-aminium 2,2,2-trifluoroacetate], for which the “Pf SI (selectivity index for P. falciparum = IC50 L6/IC50 Pf)” value in assay [1] is given as 22. Moreover, the IC50 in assay [1] (setting [4]) turned out to be 250 nM; in assay [2] (setting [5]) it was 5500 nM.
For `O=C(NCCCNCCCCNCCCNC(=O)C(=O)c1c[nH]c2cc(Br)ccc12)C(=O)c1c[nH]c2cc(Br)ccc12.O=C(O)C(F)(F)F.O=C(O)C(F)(F)F` [Compound 6, N^1,N^4-Bis(3-(2-(6-bromo-1H-indol-3-yl)-2-oxoacetamido)propyl)butane-1,4-diaminium 2,2,2-trifluoroacetate], in that order: 21, 360 nM and 7700 nM.
For `CC(C)(C)OC(=O)N(CCCCCCCCN(CCCNC(=O)C(=O)c1c[nH]c2cc(Br)ccc12)C(=O)OC(C)(C)C)CCCNC(=O)C(=O)c1c[nH]c2cc(Br)ccc12` [Compound 7, Di-tert-butyl Octane-1,8-diylbis((3-(2-(6-bromo-1H-indol-3-yl)-2-oxoacetamido)propyl)carbamate)], in that order: 340, 270 nM and 92000 nM.
For `O=C(NCCCNCCCCCCCCNCCCNC(=O)C(=O)c1c[nH]c2cc(Br)ccc12)C(=O)c1c[nH]c2cc(Br)ccc12.O=C(O)C(F)(F)F.O=C(O)C(F)(F)F` [Compound 8, N^1,N^8-Bis(3-(2-(6-bromo-1H-indol-3-yl)-2-oxoacetamido)propyl)octane-1,8-diaminium 2,2,2-trifluoroacetate], in that order: 14, 410 nM and 5600 nM.
`O=C(NCCCNCCCCNCCCNC(=O)C(=O)c1c[nH]c2ccccc12)C(=O)c1c[nH]c2ccccc12.O=C(O)C(F)(F)F.O=C(O)C(F)(F)F` [Compound 13, N^1,N^4-Bis(3-(2-(1H-indol-3-yl)-2-oxoacetamido)propyl)butane-1,4-diaminium 2,2,2-trifluoroacetate]: the “Pf SI (selectivity index for P. falciparum = IC50 L6/IC50 Pf)” value in assay [1] was found to be 500. Further, the IC50 was determined as 120 nM in assay [1] (setting [4]) and 60000 nM in assay [2] (setting [5]).
As for `COc1ccc2[nH]cc(C(=O)C(=O)NCCCN(CCCCCCCCN(CCCNC(=O)C(=O)c3c[nH]c4ccc(OC)cc34)C(=O)OC(C)(C)C)C(=O)OC(C)(C)C)c2c1` [Compound 18, Di-tert-butyl Octane-1,8-diylbis((3-(2-(5-methoxy-1H-indol-3-yl)-2-oxoacetamido)propyl)carbamate)], the IC50 was 6200 nM in assay [3] (setting [6]), 130 nM in assay [1] (setting [4]) and ≥ 120000 nM in assay [2] (setting [5]). In addition, in assay [1], the “Pf SI (selectivity index for P. falciparum = IC50 L6/IC50 Pf)” value is recorded as ≥920.
For `CC(C)(C)OC(=O)N(CCCCCCCCCCCCN(CCCNC(=O)C(=O)c1c[nH]c2ccccc12)C(=O)OC(C)(C)C)CCCNC(=O)C(=O)c1c[nH]c2ccccc12` [Compound 21, Di-tert-butyl Dodecane-1,12-diylbis((3-(2-(1H-indol-3-yl)-2-oxoacetamido)propyl)carbamate)], in that order: 61000 nM, 1800 nM, ≥ 120000 nM and ≥67.
For `COc1ccc2[nH]cc(C(=O)C(=O)NCCCN(CCCCCCCCCCCCN(CCCNC(=O)C(=O)c3c[nH]c4ccc(OC)cc34)C(=O)OC(C)(C)C)C(=O)OC(C)(C)C)c2c1` [Compound 22, Di-tert-butyl Dodecane-1,12-diylbis((3-(2-(5-methoxy-1H-indol-3-yl)-2-oxoacetamido)propyl)carbamate)], in that order: 5200 nM, 360 nM, 19000 nM and 53.
Taken in the same sequence, the figures for `COc1ccc2c(C(=O)C(=O)NCCCN(CCCCCCCCCCCCN(CCCNC(=O)C(=O)c3c[nH]c4cc(OC)ccc34)C(=O)OC(C)(C)C)C(=O)OC(C)(C)C)c[nH]c2c1` [Compound 23, Di-tert-butyl Dodecane-1,12-diylbis((3-(2-(6-methoxy-1H-indol-3-yl)-2-oxoacetamido)propyl)carbamate)] were 62000 nM, 1900 nM, ≥ 110000 nM and ≥58.
As for `COc1cccc2c(C(=O)C(=O)NCCCN(CCCCCCCCCCCCN(CCCNC(=O)C(=O)c3c[nH]c4c(OC)cccc34)C(=O)OC(C)(C)C)C(=O)OC(C)(C)C)c[nH]c12` [Compound 24, Di-tert-butyl Dodecane-1,12-diylbis((3-(2-(7-methoxy-1H-indol-3-yl)-2-oxoacetamido)propyl)carbamate)], the IC50 in assay [3] (setting [6]) is 63000 nM; in assay [1] (setting [4]), 1700 nM; in assay [2] (setting [5]), ≥ 110000 nM. In assay [1], the “Pf SI (selectivity index for P. falciparum = IC50 L6/IC50 Pf)” value is on record as ≥65.
For `O=C(NCCCNCCCCCCCCNCCCNC(=O)C(=O)c1c[nH]c2ccccc12)C(=O)c1c[nH]c2ccccc12.O=C(O)C(F)(F)F.O=C(O)C(F)(F)F` [Compound 25, N^1,N^8-Bis(3-(2-(1H-indol-3-yl)-2-oxoacetamido)propyl)octane-1,8-diaminium 2,2,2-trifluoroacetate], in that order: 2500 nM, 110 nM, 19000 nM and 170.
Take `COc1ccc2[nH]cc(C(=O)C(=O)NCCCNCCCCCCCCNCCCNC(=O)C(=O)c3c[nH]c4ccc(OC)cc34)c2c1.O=C(O)C(F)(F)F.O=C(O)C(F)(F)F` [Compound 26, N^1,N^8-Bis(3-(2-(5-methoxy-1H-indol-3-yl)-2-oxoacetamido)propyl)octane-1,8-diaminium 2,2,2-trifluoroacetate]: the IC50 in assay [3] (setting [6]) amounted to 780 nM; in assay [1] (setting [4]), 130 nM; in assay [2] (setting [5]), 13000 nM. Besides, in assay [1], the “Pf SI (selectivity index for P. falciparum = IC50 L6/IC50 Pf)” value is listed as 100.
For `COc1ccc2c(C(=O)C(=O)NCCCNCCCCCCCCNCCCNC(=O)C(=O)c3c[nH]c4cc(OC)ccc34)c[nH]c2c1.O=C(O)C(F)(F)F.O=C(O)C(F)(F)F` [Compound 27, N^1,N^8-Bis(3-(2-(6-methoxy-1H-indol-3-yl)-2-oxoacetamido)propyl)octane-1,8-diaminium 2,2,2-trifluoroacetate], in that order: 2200 nM, 170 nM, 21000 nM and 120.
Regarding `CC(C)(C)OC(=O)N(CCCCCCCCN(CCCNC(=O)Cc1c[nH]c2ccccc12)C(=O)OC(C)(C)C)CCCNC(=O)Cc1c[nH]c2ccccc12` [Compound 34, Di-tert-butyl Octane-1,8-diylbis((3-(2-(1H-indol-3-yl)acetamido)propyl)carbamate)], the “Pf SI (selectivity index for P. falciparum = IC50 L6/IC50 Pf)” value in assay [1] stood at 17. Further, the IC50 amounted to 300 nM in assay [1] (setting [4]) and 5000 nM in assay [2] (setting [5]).
Taken in the same sequence, the figures for `CC(C)(C)OC(=O)N(CCCCCCCCCCCCN(CCCNC(=O)Cc1c[nH]c2ccccc12)C(=O)OC(C)(C)C)CCCNC(=O)Cc1c[nH]c2ccccc12` [Compound 35, Di-tert-butyl Dodecane-1,12-diylbis((3-(2-(1H-indol-3-yl)acetamido)propyl)carbamate)] were 56, 800 nM and 45000 nM.
For the molecule `O=C(Cc1c[nH]c2ccccc12)NCCCNCCCCCCCCNCCCNC(=O)Cc1c[nH]c2ccccc12.O=C(O)C(F)(F)F.O=C(O)C(F)(F)F` [Compound 37, N^1,N^8-Bis(3-(2-(1H-indol-3-yl)acetamido)propyl)octane-1,8-diaminium 2,2,2-trifluoroacetate], in assay [1], the “Pf SI (selectivity index for P. falciparum = IC50 L6/IC50 Pf)” value is on record as 430. Moreover, the results for the IC50 in assay [1] (setting [4]) and in assay [2] (setting [5]) were 150 nM and 64000 nM, respectively.
For `O=C(Cc1c[nH]c2ccccc12)NCCCNCCCCCCCCCCCCNCCCNC(=O)Cc1c[nH]c2ccccc12.O=C(O)C(F)(F)F.O=C(O)C(F)(F)F` [Compound 38, N^1,N^12-Bis(3-(2-(1H-indol-3-yl)acetamido)propyl)dodecane-1,12-diaminium 2,2,2-trifluoroacetate], in that order: 160, 120 nM and 19000 nM.
As for `Nc1nc(N)nc(Nc2ccc([As]3SCC(CO)S3)cc2)n1` (centres unmarked) [Melarsoprol, reference compound], in assay [3], the IC50 worked out at 5 nM.
As for `COc1cc([C@@H]2c3cc4c(cc3[C@H](O)[C@H]3COC(=O)[C@H]23)OCO4)cc(OC)c1OC` [Podophyllotoxin, reference compound], the IC50 in assay [2] (Rattus norvegicus, Myoblast) turned out to be 19 nM.
As to “N^1,N^4-Bis(3-(2-(5-methoxy-1H-indol-3-yl)acetamido)propyl)butane-1,4-diaminium 2,2,2-trifluoroacetate [Compound 14]”, in assay [1], the “Pf SI (selectivity index for P. falciparum = IC50 L6/IC50 Pf)” value is 120. Further, the IC50 in assay [1] (setting [7]) came out at 470 nM; in assay [2] (setting [5]), 56000 nM.
For the molecule “N^1,N^4-Bis(3-(2-(6-methoxy-1H-indol-3-yl)acetamido)propyl)butane-1,4-diaminium 2,2,2-trifluoroacetate [Compound 15]”, the “Pf SI (selectivity index for P. falciparum = IC50 L6/IC50 Pf)” value in assay [1] stood at 110. Further, the IC50 in assay [1] (setting [7]) was found to be 500 nM; in assay [2] (setting [5]), 54000 nM.
